Experimental findings from ChEMBL document CHEMBL1201862, “PubChem BioAssay data set” (2004) are described below.

Common to all, as to assay: DTP human tumour cell line panel, 48 h
The test system of test [1] is SK-MEL-28.
For test [2], the system named is KM12.
For test [3], the system named is SK-OV-3.
Test [4] deals with CAKI-1.
Test [5] concerns A549.
Test [6] deals with UO-31.
Test [7] relates to SNB-19.
Test [8] concerns SNB-75.
In test [9] the test system is HT-29.
For test [10], the system named is TK-10.
The test system of test [11] is Malme-3M.
Test [12] deals with HCT-15.
Test [13] has as its system A498.
Test [14] has as its system LOX IMVI.
In test [15] the test system is SR.

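Tested at 5 concentrations; 48 h exposure; 96-well plates; endpoints linearly interpolated, else capped at highest concentration. GI50 is the concentration that inhibits growth by half.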 The source made the active and inactive calls. No stated cut-off is given here; in the data, active = GI50 up to about 1.1 µM and inactive = higher. Some results are limits rather than exact numbers.

As usually defined, the GI50 is the concentration at which growth is held to half of that of the control. Consider `NC(=O)c1csc(C2OC(COP(=O)(O)CP(=O)(O)OCC3OC(n4cnc5c(N)ncnc54)C(O)C3O)C(O)C2O)n1` (stereo not drawn), for which the GI50 in test [1], in test [2], in test [3], in [4], in [5] and in [6] was > 100 µM (inactive) in each case. Moreover, the GI50 in test [7] is > 100 µM (inactive); in test [8], > 100 µM (inactive); in [9], 87.7 µM (inactive); in test [10] it was > 100 µM (inactive); in test [11] it was > 100 µM (inactive); in test [12], 78.3 µM. For the same compound, the GI50 in test [13] was > 100 µM (inactive); in test [14], 97.1 µM (inactive).
As for `CCn1c(=O)nc2n(-c3ccccc3)c3ccccc3nc-2c1=O`, the GI50 is 32.8 µM (inactive) in test [1]; 31.3 µM (inactive) in test [2]; > 100 µM (inactive) in test [3]; 12.5 µM (inactive) in test [4]; 17.2 µM (inactive) in test [5]; 35.7 µM (inactive) in test [6]. The GI50 in test [7] is 23 µM (inactive); in test [8] it was 82.8 µM (inactive); in test [10] it was > 100 µM (inactive); in test [11], 16.3 µM (inactive); in test [12], 15.7 µM; in [13], 47.4 µM (inactive).
As for `CCOC(=O)c1cc2c(cn1)[nH]c1cccc(N)c12`, the GI50 in test [1], in test [2], in [4], in test [5], in test [15] and in [6] was > 100 µM (inactive) in each case. Besides, the GI50 in [7], in [8], in [9], in test [10], in test [11] and in [14] was > 100 µM (inactive) throughout.
For the compound `C=CCN(N=O)C(=O)NCCCC(NC(C)=O)C(=O)NCc1ccccc1` (stereo not drawn), the GI50 in test [1], in [2], in test [3], in [4], in test [5] and in [6] was > 100 µM (inactive) throughout. For the same compound, the GI50 in test [7] was > 100 µM (inactive); in test [8], > 100 µM (inactive); in [9], > 100 µM (inactive); in test [10], > 100 µM (inactive); in test [11], > 100 µM (inactive); in [12], > 100 µM. The GI50 in test [13] and in [14] was > 100 µM (inactive) in each case.
Consider `COC1CC(OC)C2OC(c3ccccc3)OCC2O1` (stereo not drawn), for which the GI50 in test [1], in test [2], in test [3], in test [5], in test [15] and in test [6] was > 100 µM (inactive) in each case. The GI50 in test [8] is > 100 µM (inactive); in test [9] it was > 100 µM (inactive); in [10], > 100 µM (inactive); in [11] it was > 100 µM (inactive); in test [12], > 100 µM; in test [14] it was > 100 µM (inactive).
As for `Cn1ncc2cc3c(Nc4ccc(Cl)cc4)cccc3nc21`, the GI50 in test [1] is 15.1 µM (inactive); in test [2], 17.3 µM (inactive); in test [3], 61.2 µM (inactive); in [4] it was 15.5 µM (inactive); in [5], 18.2 µM (inactive); in test [6], 7.4 µM (inactive). The GI50 is 37.8 µM (inactive) in test [7]; 19.4 µM (inactive) in [8]; 26.9 µM (inactive) in [10]; 23 µM (inactive) in test [11]; 14.1 µM in [12]; 14.9 µM (inactive) in test [14].
`O=c1[nH]c2cccccc-2c1-c1nc2ccccc2[nH]1`: the GI50 was 20.3 µM (inactive) in test [1]; 4.82 µM (inactive) in [2]; 20.1 µM (inactive) in test [3]; 20.4 µM (inactive) in test [4]; 25 µM (inactive) in test [5]; 34.2 µM (inactive) in test [15]. In addition, the GI50 was 31.1 µM (inactive) in test [6]; 21.2 µM (inactive) in test [7]; 12.2 µM (inactive) in [8]; 52.2 µM (inactive) in test [9]; 92.7 µM (inactive) in [10]; 21.3 µM (inactive) in [11]. Further, the GI50 in test [12] was 21.9 µM; in [14], 14.9 µM (inactive).
In the case of `COc1ccccc1C(N)c1ccccc1` (stereo not drawn), the GI50 in test [1], in [2], in test [3], in test [5], in [6] and in test [7] was > 100 µM (inactive) throughout. The GI50 is 95.9 µM (inactive) in test [8]; > 100 µM (inactive) in test [9]; > 100 µM (inactive) in test [10]; > 100 µM (inactive) in test [11]; > 100 µM in [12]; > 100 µM (inactive) in test [13]. In addition, in test [14], the GI50 is > 100 µM (inactive).
Take `COc1ccc(Cc2nccc3cc(OC)c(OC)cc23)cc1`: the GI50 in test [1] was > 100 µM (inactive); in [2], 81.5 µM (inactive); in test [3], > 100 µM (inactive); in [4], 33 µM (inactive); in [5] it was > 100 µM (inactive); in test [6], 16.9 µM (inactive). Also, the GI50 was 54.6 µM (inactive) in test [7]; 33.1 µM (inactive) in test [8]; 67.9 µM (inactive) in test [9]; > 100 µM (inactive) in test [10]; > 100 µM (inactive) in [11]; 57.3 µM in test [12]. Moreover, in test [13], the GI50 was 42.2 µM (inactive).
Consider `COc1ccc(C2S/C(=C\c3cc(OC)c(OC)c(OC)c3)C(=O)N2NC(=O)Cc2ccccc2)cc1` (stereo not drawn), for which the GI50 in test [1], in test [2], in test [3], in test [4], in test [5] and in test [15] was > 100 µM (inactive) throughout. The GI50 is 48 µM (inactive) in test [6]; 67.9 µM (inactive) in test [8]; > 100 µM (inactive) in test [9]; > 100 µM (inactive) in [10]; > 100 µM (inactive) in [11]; > 100 µM in test [12]. Besides, the GI50 in [14] was > 100 µM (inactive).
With `COC(=O)c1cc(C)n(NC(=O)OC(C)(C)C)c1C`, the GI50 in test [1], in [2], in test [3], in test [4], in [5] and in test [6] was > 100 µM (inactive) throughout. For the same compound, the GI50 was > 100 µM (inactive) in [7]; > 100 µM (inactive) in test [8]; > 100 µM (inactive) in [9]; > 100 µM (inactive) in test [10]; > 100 µM (inactive) in [11]; > 100 µM in test [12]. The GI50 in test [13] and in test [14] was > 100 µM (inactive) in each case.
